pEC50: −log10 of the molar value.
Tests used:
[1] = test system: G. lamblia trophozoites (luciferase expressing, WBC6); assay: microbe, parasite or virus in culture; format: cell-based, Giardia lamblia; details: for Giardia (16 uM) Mean % inhibition: initial Pathogen Box screen, single concentration 16 µM, inhibition compared to DMSO wells
Protocol: Trophozoites were harvested by chilling cultures on ice for 30 minutes and plated by adding 150 μL per well at a concentration of 250,000 cells/mL. Metronidazole (Sigma, St. Louis, MO) was used as a control and was serially diluted 1:2 from 40 μM to 0.04 μM and 150 μL was added to the 150 μL of the G. lamblia trophozoites. Plates were covered in plastic low-evaporation lids, sealed in individual anaerobic BD GasPak Bio-Bags (Becton Dickinson, San Jose, CA) and incubated at 37 °C for 24 hours. […] A duplicate plate was concurrently set up and assayed using a MOXI Z Mini Automated Cell Counter Kit (Orflo, Ketchum, ID). Results obtained from the bioluminescence assay and the MOXI counter data were compared to evaluate their correlation to each another. Albendazole (Sigma, St. Louis, MO), an alternative giardiasis therapeutic, was assayed in concentrations from 4 μM to 0.004 μM with only the luciferase expressing G. lamblia cells. […]

[2] = test system: C. parvum (UGA1 Nluc expressing strain in HCT-8 cells); assay: microbe, parasite or virus in culture; format: cell-based, Cryptosporidium parvum; details: for Crypto (10 uM) Mean % inhibition: initial Pathogen Box screen, single concentration 10 µM, inhibition compared to DMSO wells
Protocol: Growth inhibition and EC50 determination assays were performed using UGA1 Nluc expressing C. parvum strain in HCT-8 cells (ATCC^©, Manassas, VA) as previously described. HCT-8 cells were inoculated onto 96-well plates and allowed to grow for 48 hours to 90–100% confluence and then treated with single concentration (10 μM) or serially diluted compounds prior to oocyst infection. C. parvum oocysts were incubated for 10 minutes in 10% bleach at room temperature and then washed with DPBS. […] The cell monolayers were lysed for 1 hour before adding Nano-Glo® luciferase reagent (Promega, Madison, WI), and measuring relative luminescence units (RLU) in an EnVision Plate Reader (Perkin Elmer, Waltham, MA). Several parameters, including reproducibility and reliability, were previously evaluated to optimize this assay for low and high-throughput (HTP) screening of small molecule compounds against C. parvum. EC50 values were calculated using Prism 7 software (GraphPad Software, San Diego, CA).
C. parvum screening against the Pathogen Box compounds was performed as previously described starting at a concentration of 10 μM [23].

| Structure (SMILES) | Giardia (16 uM) Mean % inhibition [1] | Crypto (10 uM) Mean % inhibition [2] | further results |
| --- | --- | --- | --- |
| CC[C@@H]([C@H](C)O)n1ncn(-c2ccc(N3CCN(c4ccc(OC[C@@H]5CO[C@@](Cn6cncn6)(c6ccc(F)cc6F)C5)cc4)CC3)cc2)c1=O [MMV688774] | X* (Mean or standard deviation are negative but not significantly different from the control to be a growth promoter) | 90% | – |
| CCCCS(=O)(=O)Nc1ccc2cnn(C)c2c1 [MMV687145] | 56% | 32% | – |
| NC(CC(=O)c1ccc(Cl)cc1Cl)C(Cl)(Cl)Cl (centres unmarked) [MMV676468] | 55% | X* (Mean or standard deviation are negative but not significantly different from the control to be a growth promoter) | – |
| Cc1noc(C)c1C(=O)N1CCCC(c2[nH]c3c(C)cccc3c2-c2ccncc2)C1 (centres unmarked) [MMV020623] | X* (Mean or standard deviation are negative but not significantly different from the control to be a growth promoter) | 43% | – |
| CCn1ncc2c(NC3CCOCC3)c(CNC(=O)c3ccnn3C)c(C)nc21 [MMV026356] | 68% | 31% | – |
| CN1CCN(c2nccc3nc(-c4ccc(F)c(F)c4)[nH]c23)CC1 [MMV676260] | 29% | 33% | – |
| Cc1ccc(NC(=O)c2nc[nH]c2C(=O)Nc2nc3ccccc3[nH]2)c(C)c1 [MMV011903] | 21% | 62% | – |
| COc1ccc(-c2nc(-c3cccc(NC(=O)Cc4ccc(F)cc4)c3)no2)cc1OC [MMV676571] | 6% | 84% | – |
| CO/N=C(/C(=O)OC)c1ccccc1CO/N=C(/C)c1cccc(C(F)(F)F)c1 [MMV688754] | 26% | X* (Mean or standard deviation are negative but not significantly different from the control to be a growth promoter) | – |
| Cc1cccc(NC(=O)c2cc(S(=O)(=O)N(C)c3ccc(F)cc3)ccc2Cl)n1 [MMV676528] | X* (Mean or standard deviation are negative but not significantly different from the control to be a growth promoter) | 80% | – |
| Cc1cc(NC(=O)c2ccc(Oc3ccc(Cl)cc3O)o2)no1 [MMV688955] | 26% | 50% | – |
| C[C@H](C(N)=O)N1CCCC[C@H]1c1ccc(OCc2cccc(F)c2)cc1 [MMV676269] | 69% | 7% | – |
| CC(C)=CCC/C(C)=C\CNCCNC1C2CC3CC(C2)CC1C3 (centres unmarked) [MMV687273] | 89% | 35% | – |
| COC(=O)c1c(NC(=O)c2cc3ccccc3oc2=O)sc2c1CCN(Cc1ccccc1)C2 [MMV676480] | 7% | 63% | – |
| Cc1ccc(S(=O)(=O)N2CCN(C(=O)c3cc(-c4ccccc4)n[nH]3)CC2)cc1 [MMV019742] | X* (Mean or standard deviation are negative but not significantly different from the control to be a growth promoter) | X* (Mean or standard deviation are negative but not significantly different from the control to be a growth promoter) | – |
| N#Cc1ccc(-c2cnc(N)c(-c3ccc(C(N)=O)cc3)n2)cc1 [MMV085499] | 61% | 95% | C. parvum cell growth inhibition in the initial screen ([2]; 10 μM, 48 hours): ≥ 95%; pEC50 ([2]; Nluc C. parvum in HCT-8 cells, 48 hours, read-out: C. parvum EC50): 5.71 |
| CN(C)c1cc(NC(=O)Nc2ccccc2)c2ccccc2n1 [MMV006901] | 49% | X* (Mean or standard deviation are negative but not significantly different from the control to be a growth promoter) | – |
| COc1ccc2nc(C)cc(OCC(=O)Nc3ccccc3OC)c2c1 [MMV687188] | 28% | 38% | – |
| O=C(Nc1ccccc1-c1nc2c(C(=O)O)cccc2o1)c1ccccc1 [MMV676162] | 1.55% | 48% | – |
| COc1cccc2c(C)nc(N=C(N)N)nc12 [MMV000907] | 68% | 67% | – |

| Structure (SMILES) | Giardia (16 uM) Mean % inhibition [1] | Crypto (10 uM) Mean % inhibition [2] | further results |
| --- | --- | --- | --- |
| COc1cccn2c(C(=O)N3CCCCC3)c(C(F)(F)F)nc12 [MMV1110498] | 61% | 60% | – |
| CS(=O)(=O)c1ccc(C(=O)N(CC2CCCO2)c2nc3ccccc3s2)cc1[N+](=O)[O-] (centres unmarked) [MMV688761] | 63% | 77% | – |
| O=C(c1ccco1)N(CCCn1ccnc1)c1nc2c(Cl)cccc2s1 [MMV688936] | 31% | 6.36% | – |
| CC1CCCCN1C(=O)NCCc1coc(-c2ccc(F)cc2)n1 (centres unmarked) [MMV688797] | 23% | X* (Mean or standard deviation are negative but not significantly different from the control to be a growth promoter) | – |
| COC(=O)C1=C(C)NC(C)=C(C(=O)OC(C)C)[C@H]1c1cccc2nonc12 [MMV001493] | 25% | 53% | – |
| c1ccc2c(c1)CN(CC1CC1)CC1(CCN(Cc3c[nH]c4cnccc34)CC1)O2 [MMV023183] | 72% | X* (Mean or standard deviation are negative but not significantly different from the control to be a growth promoter) | – |
| COc1ccc(-c2nnc3ccc(-c4cccc(C(C)C)c4)cn23)cc1OC [MMV688313] | 26% | 34% | – |
| Cc1cc(C)c2cc(C(=O)NC3CCCCCCC3)[nH]c2c1 [MMV687146] | 15% | 33% | – |
| COC(=O)Nc1nc2ccc(C(=O)c3ccccc3)cc2[nH]1 [MMV003152, mebendazole, reference compound] | – | – | G. lamblia inhibition of parasite growth in the initial screen ([1]; 16 μM, 24 hours): did not show up in the screen; inhibition at 16 µM ([1]; Giardia duodenalis, read-out: Giardia (16 uM) Mean % inhibition): 26%; inhibition at 10 µM ([2]; Cryptosporidium parvum, HCT-8, read-out: Crypto (10 uM) Mean % inhibition): 91% |
| NCC(c1cccs1)S(=O)(=O)c1ccccc1 (centres unmarked) [MMV688557] | -0.156% | 81% | – |
| OC[C@H]1O[C@@H](n2c3ccc(Cl)cc3c3c(-c4cc5ccccc5o4)ncnc32)C(O)[C@H]1O (some centres unmarked) [MMV688921] | 5.44% | 51% | – |
| O=C1[C@@H](Oc2ccccc2)[C@@H](c2ccc(Cl)cc2)N1CCn1cnc2c(NCc3ccccc3)ncnc21 [MMV688352] | 41% | X* (Mean or standard deviation are negative but not significantly different from the control to be a growth promoter) | – |
| Cc1nc(-c2ccccn2)nc(NCCc2ccc(S(C)(=O)=O)cc2)c1Cl [MMV658993] | 11% | X* (Mean or standard deviation are negative but not significantly different from the control to be a growth promoter) | – |
| Cc1nc2ccccn2c1C(=O)NCc1ccc(Cl)cc1 [MMV012074] | 14% | 57% | – |
| O=C(c1ccc(NCCO)cc1)C1C[C@H]1c1ccc(Cl)cc1 (some centres unmarked) [MMV676877] | 8% | 70% | – |
| Cc1cc(NCC(C)C)c2[nH]nc(-c3ccccc3)c2n1 [MMV021375] | 62% | X* (Mean or standard deviation are negative but not significantly different from the control to be a growth promoter) | – |
| COc1cccc(CC(=O)N2CCC(n3c(C)nc4ccc(F)cc43)CC2)c1 [MMV020081] | X* (Mean or standard deviation are negative but not significantly different from the control to be a growth promoter) | X* (Mean or standard deviation are negative but not significantly different from the control to be a growth promoter) | – |
| CC(C)C(NC(=O)Cc1cccc2ccccc12)C(=O)Nc1cccc(C#N)c1 (centres unmarked) [MMV020591] | 16% | 55% | – |
| COC(=O)c1c(NC(=O)c2c(F)c(F)c(F)c(F)c2F)sc2c1CCCCC2 [MMV461553] | 33% | 49% | – |
| CC(=O)NC[C@@H]1CN(c2ccc(N3CCOCC3)c(F)c2)C(=O)O1 [MMV687803] | X* (Mean or standard deviation are negative but not significantly different from the control to be a growth promoter) | X* (Mean or standard deviation are negative but not significantly different from the control to be a growth promoter) | – |

From paper PMC6095626, “Screening of the Pathogen Box for inhibitors with dual efficacy against Giardia lamblia and Cryptosporidium parvum” (PLoS Neglected Tropical Diseases, 2018)
